Several values for one entry are separate records, joined by “and”; a condition that tells them apart may be missing. Identical values can stand only once. Inconclusive results and toxic doses are left out.
Test system: P388 leukemia ip, CD2F1 mice, survival T/C
Test: NCI In Vivo Anticancer Drug Screen. Data for tumor model P388 Leukemia (intraperitoneal) in CD2F1 (CDF1) mice
Settings: endpoint: median survival time, higher = longer survival
Outline: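 Mice carrying the transplanted tumor received test compound or vehicle. Survival was recorded in each group, and the value is the treated-group measurement divided by that of the vehicle-treated control group.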

[1] = dose: 50.0 mg/kg/injection, schedule: Q01DX005 (ip), vehicle: saline with Tween-80
[2] = dose: 100.0 mg/kg/injection, schedule: Q01DX005 (ip), vehicle: saline with Tween-80
[3] = dose: 100.0 mg/kg/injection, schedule: Q04DX002 (ip), vehicle: saline with Tween-80

Compound: Cc1c(C)c(C)c(S(=O)(=O)NCCNS(=O)(=O)c2c(C)c(C)c(C)c(C)c2C)c(C)c1C
- T/C (dose: 50.0 mg/kg/injection, schedule: Q01DX005 (ip), vehicle: Klucel (hydroxypropylcellulose) (HPC)): 103 % of control
- T/C (dose: 100.0 mg/kg/injection, schedule: Q01DX005 (ip), vehicle: Klucel (hydroxypropylcellulose) (HPC)): 94 % of control
- T/C (dose: 200.0 mg/kg/injection, schedule: Q01DX005 (ip), vehicle: Klucel (hydroxypropylcellulose) (HPC)): 93 % of control

Compound: O=C(Nc1ccc(Cl)cc1)OCCSc1nc2ccccc2s1
- T/C (dose: 50.0 mg/kg/injection, schedule: Q01DX009 (ip), vehicle: saline with Tween-80): 102 % of control
- T/C (dose: 100.0 mg/kg/injection, schedule: Q01DX009 (ip), vehicle: saline with Tween-80): 105 % of control
- T/C (dose: 200.0 mg/kg/injection, schedule: Q01DX009 (ip), vehicle: saline with Tween-80): 93 % of control

Compound: CCOC(=O)c1c[nH]c2c(OC)ccc(OC)c2c1=O
- T/C [1]: 99 % of control
- T/C [2]: 100 % of control
- T/C (dose: 200.0 mg/kg/injection, schedule: Q01DX005 (ip), vehicle: saline with Tween-80): 100 % of control

Compound: Cc1cc2c(cc1C)NC1=C(N2)OC(c2ccccc2C)C1=O (configuration not stated)
- T/C (dose: 60.0 mg/kg/injection, schedule: Q01DX005 (ip), vehicle: Klucel (hydroxypropylcellulose) (HPC)): 96 % of control
- T/C (dose: 120.0 mg/kg/injection, schedule: Q01DX005 (ip), vehicle: Klucel (hydroxypropylcellulose) (HPC)): 106 % of control

Compound: CC1=C(C)C(=O)OC(C(C)C2CCC3C4CC5OC56C(O)CCC(=O)C6(C)C4CCC23C)C1 (configuration not stated)
- T/C (dose: 11.3 mg/kg/injection, schedule: Q01DX009 (ip), vehicle: Klucel (hydroxypropylcellulose) (HPC)): 101 % of control
- T/C (dose: 22.6 mg/kg/injection, schedule: Q01DX009 (ip), vehicle: Klucel (hydroxypropylcellulose) (HPC)): 101 % of control
- T/C (dose: 45.2 mg/kg/injection, schedule: Q01DX009 (ip), vehicle: Klucel (hydroxypropylcellulose) (HPC)): 100 % of control

Compound: O=C1C=C(Br)C(=O)c2c1[nH]c(=O)[nH]c2=O
- T/C (dose: 8.0 mg/kg/injection, schedule: Q01DX005 (ip), vehicle: DMSO): 117 % of control
- T/C (dose: 16.0 mg/kg/injection, schedule: Q01DX005 (ip), vehicle: DMSO): 107 % of control
- T/C (dose: 32.0 mg/kg/injection, schedule: Q01DX005 (ip), vehicle: DMSO): 95 % of control
- T/C (dose: 64.0 mg/kg/injection, schedule: Q01DX005 (ip), vehicle: DMSO): 107 % of control

Compound: O.O=[N+]([O-])O.[NH2-].[NH2-].[Pt+2]
- T/C (dose: 0.04 mg/kg/injection, schedule: Q01DX009 (ip), vehicle: other): 118 % of control
- T/C (dose: 0.16 mg/kg/injection, schedule: Q01DX009 (ip), vehicle: other): 91 % of control
- T/C (dose: 0.31 mg/kg/injection, schedule: Q01DX009 (ip), vehicle: other): 150 % of control

Compound: COc1cc(C)c(O)c(C/C=C(\C)CC2=C[C@@]3(C)CCC[C@@]3(C)[C@]3(C=CC(C)(C)O3)O2)c1
- T/C (dose: 10.0 mg/kg/injection, schedule: Q01DX005 (ip), vehicle: saline with Tween-80): 94 % of control
- T/C (dose: 20.0 mg/kg/injection, schedule: Q01DX005 (ip), vehicle: saline with Tween-80): 99 % of control
- T/C (dose: 40.0 mg/kg/injection, schedule: Q01DX005 (ip), vehicle: saline with Tween-80): 99 % of control

Compound: Fc1ccc(N=Cc2ccc(C=Nc3ccc(F)cc3)cc2)cc1
- T/C (dose: 50.0 mg/kg/injection, schedule: Q01DX009 (ip), vehicle: saline): 100 % of control
- T/C (dose: 100.0 mg/kg/injection, schedule: Q01DX009 (ip), vehicle: saline): 100 % of control
- T/C (dose: 200.0 mg/kg/injection, schedule: Q01DX009 (ip), vehicle: saline): 97 % of control

Compound: COC1CCC(Sc2cccc[n+]2CC(C)=O)CC1OC (configuration not stated)
- T/C (dose: 12.5 mg/kg/injection, schedule: Q01DX005 (ip), vehicle: saline with Tween-80): 100 % of control
- T/C (dose: 25.0 mg/kg/injection, schedule: Q01DX005 (ip), vehicle: saline with Tween-80): 99 % of control
- T/C [1]: 98 % of control and 101 % of control
- T/C [2]: 102 % of control

Compound: CN=C(N)N/N=C(/C)c1ccc2c(c1)Cc1cc(I)ccc1-2
- T/C (dose: 25.0 mg/kg/injection, schedule: Q04DX002 (ip), vehicle: saline with Tween-80): 106 % of control
- T/C (dose: 50.0 mg/kg/injection, schedule: Q04DX002 (ip), vehicle: saline with Tween-80): 100 % of control
- T/C [3]: 107 % of control

Compound: Nc1cc(=O)n2cn[nH]c2n1
- T/C [3]: 100 % of control
- T/C (dose: 200.0 mg/kg/injection, schedule: Q04DX002 (ip), vehicle: saline with Tween-80): 103 % of control
- T/C (dose: 400.0 mg/kg/injection, schedule: Q04DX002 (ip), vehicle: saline with Tween-80): 103 % of control

Reference: PubChem BioAssay AID330 (DTP/NCI, 2004)
